Source: patent publication US11254640B2, “N-substituted indoles and other heterocycles for treating brain disorders” (The Regents of the University of California, priority 2019, dated 2022)
pEC50: −log10 of the molar value. “Also recorded” adds a separate entry of the source. Where a name gives a salt, the structure may show the parent alone. Read-outs that look alike come from different tables or passages of the source.

Legend:
cortical neurons = experiment: Dendritogenesis assay, Sholl analysis; type: cell-based, rat; settings: for Emax at 10 µM: Rattus norvegicus, Cortical neurone, Nmax with vehicle (DMSO) = 0% and ketamine = 100%, read-out: % efficacy in sholls; for dendritic arbor complexity / neuronal growth (Nmax of Sholl plots): cortical neurons; for Emax at 10 µM / dendritic arbor complexity / neuronal growth (Nmax of Sholl plots): 10 μM
Text: Dendritogenesis Assays. Phenotypic screening has historically proven more successful than target-based approaches for identifying drugs with novel mechanisms of action. Having established a simple and robust method for accessing isoDMT analogs, tested next was their ability to increase dendritic arbor complexity in cultures of cortical neurons using a phenotypic assay. Following treatment, neurons were fixed and visualized using an antibody against MAP2—a cytoskeletal protein localized to the somatodendritic compartment of neurons. Sholl analysis was then performed, and the maximum number of crossings (Nmax) was used as a quantitative metric of dendritic arbor complexity. For statistical comparisons between specific compounds, the raw Nmax values were compared. Percent efficacies were determined by setting the Nmax values for the vehicle (DMSO) and positive (ketamine) controls equal to 0% and 100%, respectively.
Animals. For the dendritogenesis experiments, timed pregnant Sprague Dawley rats were obtained from Charles River Laboratories (Wilmington, Mass.). For the head-twitch response assay, male and female C57BL/6J mice were obtained from Jackson Laboratory (Sacramento, Calif.). Mice were housed in a temperature and humidity-controlled room maintained on a 12-h light/dark cycle in groups of 4-5 (same sex). Animals weighed between 17 and 30 g at the time of the experiments. All experimental procedures involving rodents were approved by the UC Davis Institutional Animal Care and Use Committee (IACUC) and adhered to principles described in the National Institutes of Health Guide for the Care and Use of Laboratory Animals. The University of California, Davis and the University of California, San Francisco are accredited by the Association for Assessment and Accreditation of Laboratory Animal Care International (AAALAC).
Dendritogenesis—Sholl Analysis. Dendritogenesis experiments were performed following a previously published method with slight modifications. Neurons were plated in 96-well format (200 μL of media per well) at a density of approximately 15,000 cells/well in Neurobasal (Life Technologies) containing 1% penicillin-streptomycin, 10% heat-inactivated fetal bovine serum, and 0.5 mM glutamine. After 24 h, the medium was replaced with Neurobasal containing 1× B27 supplement (Life Technologies), 1% penicillin-streptomycin, 0.5 mM glutamine, and 12.5 μM glutamate. After 3 days in vitro (DIV3), the cells were treated with compounds. All compounds tested in the dendritogenesis assays were treated at 10 μM unless noted otherwise. Stock solutions of the compounds in DMSO were first diluted 100-fold in Neurobasal before an additional 10-fold dilution into each well (total dilution=1:1000; 0.1% DMSO concentration). Treatments were randomized. After 1 h, the media was removed and replaced with new Neurobasal media containing 1× B27 supplement, 1% penicillin-streptomycin, 0.5 mM glutamine, and 12.5 μM glutamate. The cells were allowed to grow for an additional 71 h. At that time, neurons were fixed by removing 80% of the media and replacing it with a volume of 4% aqueous paraformaldehyde (Alfa Aesar) equal to 50% of the working volume of the well. Then, the cells were incubated at room temperature for 20 min before the fixative was aspirated and each well washed twice with DPBS. Cells were permeabilized using 0.2% Triton X-100 (ThermoFisher) in DPBS for 20 minutes at room temperature without shaking. Plates were blocked with antibody diluting buffer (ADB) containing 2% bovine serum albumin (BSA) in DPBS for 1 h at room temperature. Then, plates were incubated overnight at 4° C. with gentle shaking in ADB containing a chicken anti-MAP2 antibody (1:10,000; EnCor, CPCA-MAP2). The next day, plates were washed three times with DPBS and once with 2% ADB in DPBS. […]

5HT2A = target: T1, 5HT2A (Homo sapiens, UniProt P28223); experiment: Calcium flux assay (Calcium secondary messenger pathway); type: cell-based; settings: agonist mode
T1 construct: expressed in transfected cells
T1 sequence (P28223 whole entry): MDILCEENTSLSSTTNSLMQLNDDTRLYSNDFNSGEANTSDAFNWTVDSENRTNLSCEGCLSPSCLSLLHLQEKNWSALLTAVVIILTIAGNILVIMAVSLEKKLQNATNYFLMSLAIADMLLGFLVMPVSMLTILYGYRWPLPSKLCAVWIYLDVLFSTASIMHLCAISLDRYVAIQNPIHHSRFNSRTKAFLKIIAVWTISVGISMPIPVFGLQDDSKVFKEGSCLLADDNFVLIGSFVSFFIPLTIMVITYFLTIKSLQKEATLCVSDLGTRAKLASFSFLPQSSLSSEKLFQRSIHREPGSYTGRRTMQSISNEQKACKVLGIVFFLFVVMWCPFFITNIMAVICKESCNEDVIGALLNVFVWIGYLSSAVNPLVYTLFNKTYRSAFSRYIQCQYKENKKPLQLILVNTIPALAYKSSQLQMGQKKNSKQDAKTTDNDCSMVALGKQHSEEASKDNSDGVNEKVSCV
Summary of the method: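 Gq-coupled calcium mobilization in cells stably expressing 5HT2A, loaded 30–60 min at 37 °C with calcium-sensitive dye in HBSS/20 mM Hepes with 2.5 mM probenecid. Compound added 5 s into a 2-min FLIPR Tetra fluorescence read at room temperature; % activity relative to vehicle and maximal control-ligand RFU.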

rat cortical neurons = experiment: Neurite outgrowth assay; type: cell-based; settings: Cortical neurone, 1 hour treatment at DIV 4, analysed DIV 7, fold vs DMSO control
Summary of the method: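 Embryonic day 18 rat cortical neurons, 20,000 cells/well in Neurobasal/B27, were exposed at DIV 4 to 10 μM compound for 1 hour, then washed out. At DIV 7, β-III-tubulin immunostaining and automated imaging gave neurite length, branch points, root and extremity counts, reported as fold-change versus DMSO; triplicates.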

5HT2A sensor [1] = experiment: 5HT2A sensor assay, antagonist mode (sLight1.3s HEK293T stable line); type: cell-based; settings: relative to 5-HT at 100 nM
Summary of the method: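 Inactivation score is computed from membrane dFF as (dFF(compound+5HT)−dFF(5HT))/dFF(5HT), with HBSS-only fluorescence as Fapo. Final concentrations: 5-HT 100 nM added first, then compound at 100 nM, 10 μM or 100 μM in 0.1% DMSO. Triplicates; FITC imaging, 5 fields per well.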

5HT2A sensor [2] = experiment: 5HT2A sensor assay, agonist mode (sLight1.3s HEK293T stable line); type: cell-based; settings: percent relative to 5-HT at 100 uM
Summary of the method: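 Agonist mode in HEK293T cells stably expressing the sLight1.3 5HT2A sensor, washed into HBSS; compounds at final 100 μM, 10 μM and 100 nM (0.1% DMSO), triplicate wells. Membrane fluorescence (ex 460, em 512-542 nm) imaged before and after addition; dFF=(Fsat−Fapo)/Fapo, expressed as percent activation (DMSO=0, 5HT=100).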

SMILES | melting point [°C] | Emax at 10 µM (cortical neurons) [%] | dendritic arbor complexity / neuronal growth (Nmax of Sholl plots) (cortical neurons) | also measured
CN(C)CCn1ccc2c(OCc3ccccc3)cccc21 (as salt: fumarate) [Example 8, 2-(4-(benzyloxy)-1H-indol-1-yl)-N,N-dimethylethan-1-amine] | 145 to 150 | – | – | –
CN(C)CCn1ccc2cc(OCc3ccccc3)ccc21 (as salt: fumarate) [Example 9, 2-(5-(benzyloxy)-1H-indol-1-yl)-N,N-dimethylethan-1-amine] | 133 to 135 | – | – | –
CN(C)CCn1ccc2c(F)cccc21 (as salt: fumarate) [Example 12, 2-(4-fluoro-1H-indol-1-yl)-N,N-dimethylethan-1-amine] | 145 to 149 | – | – | –
CN(C)CCn1ccc2cc(F)ccc21 (as salt: fumarate) [Example 13, 2-(5-fluoro-1H-indol-1-yl)-N,N-dimethylethan-1-amine] | 145 to 148 | – | – | –
CN(C)CCn1ccc2cccc(F)c21 (as salt: fumarate) [Example 15, 2-(7-fluoro-1H-indol-1-yl)-N,N-dimethylethan-1-amine] | 168 to 170 | – | – | –
CN(C)CCn1ccc2cc(F)c(F)cc21 (as salt: fumarate) [Example 17, 2-(5,6-difluoro-1H-indol-1-yl)-N,N-dimethylethan-1-amine] | 162 to 165 | – | – | –
CN(C)CCn1ccc2c(F)cc(F)cc21 (as salt: fumarate) [Example 18, 2-(4,6-difluoro-1H-indol-1-yl)-N,N-dimethylethan-1-amine] | 141 to 145 | – | – | –
CN(C)CCn1cccc1 (as salt: fumarate) [Example 23, N,N-dimethyl-2-(1H-pyrrol-1-yl)ethan-1-amine] | 174 to 180 | – | – | –
CN(C)CCc1cn(C)c2ccccc12 (as salt: fumarate) [Example 27, N,N-dimethyl-2-(1-methyl-1H-indol-3-yl)ethan-1-amine] | 167 to 170 | – | – | –
CN(C)CCn1ccc2ccccc21.O=C(O)/C=C/C(=O)O [Example 2, 2-(1H-indol-1-yl)-N,N-dimethylethan-1-amine] | 147 to 149 | 87 | increase dendritic arbor complexity to a comparable extent as DMT (1); also recorded: increased dendritic arbor complexity to a comparable extent as 1 | psychoplastogenic efficacy and potency, concentration-response (Nmax) (cortical neurons; concentrations ranging from 10 μM to 10 pM (FIG. 6)): comparable maximum efficacies and had similar potencies as isosteric DMTs (1 and 28)
CN(C)CCn1ccc2ccc(F)cc21.O=C(O)/C=C/C(=O)O [Example 14, 2-(6-fluoro-1H-indol-1-yl)-N,N-dimethylethan-1-amine] | 141 to 147 | 88 | – | –
Cc1cc2ccccc2n1CCN(C)C.O=C(O)/C=C/C(=O)O [Example 16, N,N-dimethyl-2-(2-methyl-1H-indol-1-yl)ethan-1-amine] | 131 to 133 | 104 | well tolerated | –
CN(C)CCn1ccc2ccc([N+](=O)[O-])cc21.O=C(O)/C=C/C(=O)O [Example 19, N,N-dimethyl-2-(6-nitro-1H-indol-1-yl)ethan-1-amine] | 159 to 164 | 85 | – | –
CN(C)CCn1ccc2cc(Br)ccc21.O=C(O)/C=C/C(=O)O [Example 20, 2-(5-bromo-1H-indol-1-yl)-N,N-dimethylethan-1-amine] | 140 to 142 | 117 | – | –
CN(C)CCn1cnc2ccccc21.O=C(O)/C=C/C(=O)O [Example 22, 2-(1H-benzo[d]imidazol-1-yl)-N,N-dimethylethan-1-amine] | 171 to 178 | 50 | minimal effect on the ability of these molecules to promote neuronal growth | –
CN(C)CCn1c2ccccc2c2ccccc21.O=C(O)/C=C/C(=O)O [Example 24, 2-(9H-carbazol-9-yl)-N,N-dimethylethan-1-amine] | 182 to 184 | 86 | minimal effect on the ability of these molecules to promote neuronal growth | –
CN(C)CCCn1ccc2ccccc21.O=C(O)/C=C/C(=O)O [Example 26, 3-(1H-indol-1-yl)-N,N-dimethylpropan-1-amine] | 129 to 131 | 70 | only a slight decrease in the Nmax value | –
CN(C)C(=O)Cn1ccc2ccccc21 [Example 31, 2-(1H-indol-1-yl)-N,N-dimethylacetamide] | 58 to 61 | – | did not promote neuronal growth | –
COc1ccc2c(ccn2CCN2CC3(COC3)C2)c1 [Example 84, 6-(2-(5-methoxy-1H-indol-1-yl)ethyl)-2-oxa-6-azaspiro[3.3]heptane] | – | – | – | pEC50 (5HT2A): < 5.00; fold induction at 10 µM (rat cortical neurons; read-out: Neurite Average Length @ 10 μM): 1.5 to 3; fold induction at 10 µM (rat cortical neurons; read-out: Neurite Branch Points: @ 10 μM): 1.5 to 3; 5HT2A Antagonist mean @ 100 nM (%) (5HT2A sensor [1]; 100 nM compound): B (inhibits 5HT response by 75% to 100%); 5HT2A Antagonist mean @ 10 μM (%) (5HT2A sensor [1]; 10 μM compound): B (inhibits 5HT response by 75% to 100%); 5HT2A Antagonist mean @ 100 μM (%) (5HT2A sensor [1]; 100 μM compound): B (inhibits 5HT response by 75% to 100%); 5HT2A Agonist mean @ 100 nM (%) (5HT2A sensor [2]; 100 nM compound): B (does not activate 5HT2A sensor assay in agonist mode); 5HT2A Agonist mean @ 10 μM (%) (5HT2A sensor [2]; 10 μM compound): B (does not activate 5HT2A sensor assay in agonist mode); 5HT2A Agonist mean @ 100 μM (%) (5HT2A sensor [2]; 100 μM compound): A (activates 5HT2A sensor assay in agonist mode)
